Measured values published in publication PMC7243741 (Bioorganic & medicinal chemistry letters, 2019).

Experiments:
[1] = system: PPARγ phosphorylation at S273; type: cell-based, mouse; conditions: 3T3-L1 differentiated adipocytes, in the presence of TNFα, compounds at 10 μM, Western blot with pSer273-specific antibody
[2] = target: T1, GST-tagged PPARγ ligand-binding domain (PPARγ LBD) (Homo sapiens, UniProt P37231); experiment: In vitro competition binding assay
T1 sequence (P37231 238-503 limits assumed): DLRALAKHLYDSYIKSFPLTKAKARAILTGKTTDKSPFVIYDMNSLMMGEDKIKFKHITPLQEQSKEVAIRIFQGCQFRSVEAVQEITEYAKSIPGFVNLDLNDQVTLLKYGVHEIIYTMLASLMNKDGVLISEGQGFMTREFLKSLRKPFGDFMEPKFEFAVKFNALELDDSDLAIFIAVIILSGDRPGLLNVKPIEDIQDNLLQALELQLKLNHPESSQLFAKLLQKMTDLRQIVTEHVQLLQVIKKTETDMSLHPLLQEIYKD

[3] = target: T1, GST-tagged PPARγ ligand-binding domain (PPARγ LBD); experiment: biochemical
3T3-L1 cells = experiment: Oil Red O staining of 3T3-L1 adipocyte differentiation; type: cell-based, mouse; conditions: 3T3-L1 in differentiation media, compounds at 10 μM

SMILES | Inhibition of PPARγ S273 phosphorylation [1] | fold improvement in PPARγ binding potency compared to parental compound UHC1 ([2]; ratio of IC50 vs UHC1) | IC50 [2] | Ki [3] | Adipocyte differentiation (Oil Red O staining of lipid droplets) (3T3-L1 cells)
COc1cc(CNC(=O)c2ccc3c(c2)c(C)c(C)n3Cc2ccc(-c3ccccc3C(=O)O)cc2)ccc1O [Compound 2e, 4’-((5-((4-Hydroxy-3-methoxybenzyl)carbamoyl)-2,3-dimethyl-1H-indol-1-yl)methyl)-[1,1’-biphenyl]-2-carboxylic acid] | significantly inhibited | over 30 fold | – | – | –
Cc1cc(C(=O)NCc2cccc(O)c2)ccc1NCc1ccc(-c2ccccc2C(=O)O)cc1 [Compound 5, 4’-(((4-((3-Hydroxybenzyl)carbamoyl)-2-methylphenyl)amino)methyl)-[1,1’-biphenyl]-2-carboxylic acid] | – | – | 325 nM | 254 nM | –
Cc1c(C)n(Cc2ccc(-c3ccccc3C(=O)O)cc2)c2ccc(C(=O)NCc3cccnc3)cc12 [UHC1, reference compound] | significantly inhibited | – | – | – | significantly reduced Oil Red O staining
